What was measured:
[1] = tested on: MM1 cells; assay: In vitro invasion assay, LPA-induced invasion of MM1 cells across mesothelial cell monolayer; type: cell-based, rat; conditions: 25 μM LPA; for invasion suppressing activity on LPA-induced invasion, carba-cPA at low concentration (in words): 0.5 μM, 1 μM or 10 μM carba-cPA
Method: The abdomen of a male DONRYU rat (300 g, NIPPON BIO-SUPP. CENTER) was opened aseptically. The thus obtained mesenterium was treated with 0.25% trypsin at 37° C. for 15 minutes, filtrated with a 150 μm stainless mesh, and then centrifuged to collect mesothelial cells. The cells were cultured under conditions of 37° C. and 5% CO2 in a medium which was obtained by adding 10% FBS to Eagle's MEMI (Nissui) supplemented with Eagle's MEM amino acid vitamin medium (Nissui) in a volume twice as great as that of the MEMI. A mesothelial cell monolayer which had reached a confluent density after 1 week of culturing was used for invasion assay.
The MM1 cells, which are highly invasive clones of rat ascites hepatoma cells (AH-130), were established by Mukai et al., (Int. J. Cancer : 81, 918-922 (1999)), and was cultured under the same conditions as those for mesothelial cells.
In vitro invasion assay was developed by Akedo et al (Akedo, H et al., Cancer Res. 46, 2416-2422 (1986)). MM1 cells were multi-layer-cultured on the mesothelial cell layer, which had been grown to reach a confluent density, in the presence of 10% FBS or 25 μM LPA (SIGMA). 25 μM cPA was then added. The cells were cultured under conditions of 37° C. and 5% CO2 for 20 hours, and then fixed with 10% formalin. The number of colonies of MM1 cells that had invaded was counted under a phase-contrast microscope (FIG. 3).
cPA and LPA were ice-cooled in PBS containing 0.1% fatty-acid free BSA (SIGMA), ultrasonicated, emulsified, stored at −20° C., and then used.
0.5 μM, 1 μM and 10 μM carba-cPA were added to MM1 cells, and then in vitro invasion assay was performed similarly to (1-1) in the presence of 25 μM LPA.
The following reagents were respectively added to an in vitro invasion assay system so as to examine their effects on MM1 cell invasion in the presence of 25 μM LPA: Forskolin (Wako) which directly activates adenylate cyclase (cAMP synthase); cholera toxin (CTX) (GIBCO BRL) which prevent the deactivation of G protein (Gs) which activates adenylate cyclase; Bt2cAMP (nacalai tesque) which can pass through the membrane and functions in a manner similar to that of cAMP when it enters the cell; or isobutylmethylxanthine (IBMX, 3-isobutyl-1-methylxanthine) (SIGMA) which inhibits phosphodiesterase (cAMP degrading enzyme).

[2] = General state and body weight of B16-F0 melanoma-bearing mice; type: in vivo; conditions: for Body weight (g) day 0: day 0, mean ± S.D.; for Body weight (g) day 0 / Body weight (g) day 4 / Body weight (g) day 7 / Body weight (g) day 11 / Body weight (g) day 14: N 6; for Body weight (g) day 4: day 4, mean ± S.D.; for Body weight (g) day 7: day 7, mean ± S.D.; for Body weight (g) day 11: day 11, mean ± S.D.; for Body weight (g) day 14: day 14, mean ± S.D.; for effect on changes in body weight (in words): 0.001-0.008 mg/body i.v., days 0 to 14; for body weight compared with the medium group at each measurement (in words): days 0, 4, 7, 11, 14
Method: The mixture was administered via the caudal vein. The number of grafted cells was 5×10^5 cells/body. The dose of the test substance was 0.001, 0.004 or 0.008 mg/body, and the dose of the positive control substance was 0.008 mg/body.
Observation period ranged from days 0 to 14 after the administration of the test substance. Life and death were confirmed every day during this period, and the general state was observed. Body weight measurement was performed twice a week.
The representative value of each test group was denoted as mean±standard deviation (mean±S.D.). Differences in mean values were examined as follows. The number of metastatic nodules was examined by Dunnett's multiple comparison test between the medium group and the cPA-19 group, and between the medium group and the cPA-20 group. The same was examined by the Student's T-test between the medium group and cPA-5 group. The number of metastatic lesions was examined by the Wilcoxon test using the medium group as a control. The number of animals having metastatic nodules or metastatic lesions was examined by Fisher's extract probability test using the medium group as a control. The significance levels were 1% and 5%.

[3] = tested on: MM1 cells; assay: Effect on the proliferation of MM1 cells; type: cell-based, rat; conditions: 12.5 μM or 25 μM cPA, 10% FBS, 24 hours and 72 hours
Method: 12.5 μM and 25 μM cPA were added to media containing 10% FBS, and then the cells were cultured under conditions of 37° C. and 5% CO2 for 24 hours and 72 hours. The number of the MM1 cells was counted using a hemocytometer.

[4] = tested on: HT-1080 cells; conditions: Mukai et al., Int. J. Cancer 81, 918-922 (1999); cited from earlier work
[5] = tested on: MM1 cells; conditions: reported by Mukai et al., Int. J. Cancer 81, 918-922 (1999); cited from earlier work
[6] = tested on: MM1 cells; assay: Measurement of intracellular cAMP in MM1 cells; type: cell-based, rat; conditions: 25 μM cPA or 10 μM Forskolin, pretreated with 1 mM IBMX
Method: After a certain time period, 10% ice-cooled TCA was added to stop the reaction. The centrifuged supernatant was washed 4 times with water-saturated diethylether to remove TCA, and then placed under nitrogen gas flow at 60° C. to remove the solvent completely. cAMP in the resultant sample was measured using a cyclic AMP [^3H] assay system (Amersham).

[7] = tested on: MM1 cells; conditions: Int. J. Cancer 81, 918-922 (1999), cited from earlier work
[8] = tested on: MM1 cells; conditions: reported by Mukai et al., Int. J. Cancer 81, 918-922 (1999); cited from earlier work; remark: listed apart in the source

| Compound | invasion suppressing activity on LPA-induced invasion, carba-cPA at low concentration (in words) [1] | Body weight (g) day 0 ([2]; 0.001 mg/body i.v.) | Body weight (g) day 4 ([2]; 0.001 mg/body i.v.) | Body weight (g) day 7 ([2]; 0.001 mg/body i.v.) | Body weight (g) day 11 ([2]; 0.001 mg/body i.v.) | Body weight (g) day 14 ([2]; 0.001 mg/body i.v.) | Body weight (g) day 0 ([2]; 0.004 mg/body i.v.) | Body weight (g) day 4 ([2]; 0.004 mg/body i.v.) | Body weight (g) day 7 ([2]; 0.004 mg/body i.v.) | Body weight (g) day 11 ([2]; 0.004 mg/body i.v.) | Body weight (g) day 14 ([2]; 0.004 mg/body i.v.) | Body weight (g) day 0 ([2]; 0.008 mg/body i.v.) | Body weight (g) day 4 ([2]; 0.008 mg/body i.v.) | Body weight (g) day 7 ([2]; 0.008 mg/body i.v.) | Body weight (g) day 11 ([2]; 0.008 mg/body i.v.) | Body weight (g) day 14 ([2]; 0.008 mg/body i.v.) | effect on changes in body weight (in words) [2] | body weight compared with the medium group at each measurement (in words) [2] | effect on MM1 cell proliferation (in words) [3] | also measured |
| --- | --- | --- | --- | --- | --- | --- | --- | --- | --- | --- | --- | --- | --- | --- | --- | --- | --- | --- | --- | --- |
| carba-ΔPal-cPA [cPA-20] | stronger invasion suppressing activity than cPA-18 | 15.9 ± 0.6 g | 15.5 ± 0.3 g | 16.1 ± 0.6 g | 16.8 ± 0.4 g | 17.4 ± 0.6 g | 16.0 ± 0.6 g | 16.0 ± 0.7 g | 16.2 ± 0.6 g | 16.9 ± 0.7 g | 17.5 ± 0.8 g | 15.9 ± 0.5 g | 16.1 ± 0.8 g | 16.3 ± 0.8 g | 17.0 ± 0.9 g | 17.7 ± 0.8 g | no effect on changes in body weight | no significant difference | showed proliferation suppressing activity | – |
| CCCCCCCCCCCCCCCC(=O)OC[C@@H]1COP(=O)(O)O1 [cPA-5, Pal-cPA, reference compound] | – | – | – | – | – | – | – | – | – | – | – | 15.9 ± 0.6 g | 15.8 ± 0.9 g | 16.2 ± 1.0 g | 17.0 ± 0.8 g | 17.4 ± 1.0 g | – | no significant difference | no effect on MM1 cell proliferation | suppression of serum/LPA-independent invasion of HT-1080 cells (in words) [4]: suppressed; suppression of LPA-induced invasion (in words) ([1]; 25 μM cPA derivative, 20 hours): suppressed; suppression of FBS-induced invasion (in words) [5]: strongly suppress; change of intracellular cAMP concentration (in words) [6]: could not be confirmed; invasion suppressing action on LPA-induced invasion (in words) ([7]; reported by Mukai et al.): strongly suppress; suppressed LPA-induced invasion by ([7]; studied by Mukai et al.): approximately 85%; intracellular cAMP concentration of MM1 cells (in words) [8]: leads an increase of intracellular cAMP concentration |
| carba-Ole-cPA [cPA-19] | stronger invasion suppressing activity than cPA-18 | 15.9 ± 0.6 g | 15.5 ± 0.5 g | 15.8 ± 0.7 g | 16.5 ± 1.0 g | 17.1 ± 1.2 g | 15.9 ± 0.6 g | 16.0 ± 0.5 g | 16.1 ± 0.6 g | 16.7 ± 0.6 g | 17.6 ± 0.9 g | 15.9 ± 0.6 g | 15.4 ± 0.5 g | 15.9 ± 0.5 g | 16.8 ± 0.5 g | 17.0 ± 0.4 g | no effect on changes in body weight | no significant difference | showed proliferation suppressing activity | – |
